Source: patent US6455577B2, “Flavanone derivatives and composition for preventing or treating blood lipid level-related diseases comprising same” (Korea Research Institute of Bioscience and Biotechnology, priority 2000, dated 2002)

Assays:
ICR mice = assay: Toxicity of orally administered NG5006 in mice; format: in vivo, mouse; settings: single oral dose 1, 2 and 4 g/kg
Method: 4 week-old, specific pathogen-free ICR female mice(12 heads) and male mice(12 heads) were bred under a condition of temperature 22±3° C., moisture 55±10% and photoperiod 12L/12D. Fodder(Cheiljedang Co., mouse and rat fodder) and water were sterilized and fed to the mice.
NG5006 was dissolved in 0.5% Tween 80 to a concentration of 100 mg/ml. The solution thus obtained was orally administered to the mice in amounts of 0.2 ml(1 g/kg), 0.4 ml(2 g/kg) and 0.8 ml(4g/kg) per 20 g of mouse body weight, respectively. […] The weight changes of the mice were recorded every day to examine the effect of NG5006. Further, on the 7th day, the mice were sacrificed and the internal organs were visually examined.

HMG-CoA reductase = molecular target: T1, HMG-CoA reductase (Rattus norvegicus, UniProt P51639); assay: HMG-CoA reductase activity in liver microsomes of fed rats; format: in vivo
T1 construct: microsomes were separated from liver tissues to be used as an enzyme source; from tissue; host or cells: liver microsomes of fed rats
T1 sequence (P51639 1-887): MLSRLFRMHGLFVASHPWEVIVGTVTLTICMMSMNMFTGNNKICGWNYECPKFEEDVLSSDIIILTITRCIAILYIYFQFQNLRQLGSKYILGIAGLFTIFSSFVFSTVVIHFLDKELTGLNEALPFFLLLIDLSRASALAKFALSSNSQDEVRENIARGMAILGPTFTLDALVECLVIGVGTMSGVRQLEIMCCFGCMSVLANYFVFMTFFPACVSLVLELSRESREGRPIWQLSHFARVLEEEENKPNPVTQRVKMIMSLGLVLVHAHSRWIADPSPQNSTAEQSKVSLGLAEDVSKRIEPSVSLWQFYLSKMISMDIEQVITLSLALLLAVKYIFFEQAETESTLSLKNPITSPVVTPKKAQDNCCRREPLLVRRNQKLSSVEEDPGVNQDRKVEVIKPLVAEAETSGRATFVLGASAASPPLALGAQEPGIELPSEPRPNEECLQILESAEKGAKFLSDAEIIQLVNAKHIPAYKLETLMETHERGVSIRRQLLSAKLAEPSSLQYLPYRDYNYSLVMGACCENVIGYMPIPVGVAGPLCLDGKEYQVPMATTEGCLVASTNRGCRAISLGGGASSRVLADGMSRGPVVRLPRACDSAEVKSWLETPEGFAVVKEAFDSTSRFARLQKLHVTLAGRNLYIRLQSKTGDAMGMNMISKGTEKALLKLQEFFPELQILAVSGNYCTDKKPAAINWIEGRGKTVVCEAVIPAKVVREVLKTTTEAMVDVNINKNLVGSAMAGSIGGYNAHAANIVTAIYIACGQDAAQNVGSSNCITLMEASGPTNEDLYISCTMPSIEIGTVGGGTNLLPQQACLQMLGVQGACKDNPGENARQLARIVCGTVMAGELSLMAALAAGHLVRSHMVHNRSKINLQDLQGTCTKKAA
Method: To determine the effect of feeding NG5006 to rats on the activities of ACAT and HMG-CoA reductase, microsomes were separated from liver tissues to be used as an enzyme source.
1 g each of the livers taken from each group of rats of Example 12 was homogenized in 5 ml of homogenization medium(0. 1 M KH2PO4, pH 7.4, 0.1 mM EDTA and 10 mM β-mercaptoethanol). The homogenate was centrifuged at 3,000×g for 10 min. at 4° C. and the supernatant thus obtained was centrifuged at 15,000×g for 15 min. at 4° C. to obtain a supernatant. The supernatant was put into an ultracentrifuge tube(Beckman) and centrifuged at 100,000×g for 1 hour at 4° C. to obtain microsomal pellets, which were then suspended in 3 ml of the homogenization medium and centrifuged at 100,000×g for 1 hour at 4° C. The pellets thus obtained were suspended in 1 ml of the homogenization medium. The protein concentration of the resulting suspension was determined by Lowry's method and then adjusted to 4 to 8 mg/ml. The resulting suspension was stored in a deep freezer(Biofreezer, Forma Scientific Inc.).
The activity of HMG-CoA reductase was determined by employing [^14C]HMG-CoA, in accordance with the method of Shapiro et al.(Biochemica et Biophysica Acta, 370, 369-377(1974)) as follows.
The enzyme in the supernatant containing the microsome obtained in (Step 1) was activated at 37° C. for 30 min. Added to a reaction tube were 20 μl of HMG-CoA reductase assay buffer(0.25M KH2PO4(pH 7.0), 8.75 mM EDTA, 25 mM DTT, 0.45 M KCl and 0.25 mg/ml BSA), 5 μl of 50 mM NADPH, 5 μl of [^14C]HMG-CoA(0.05μ Ci/tube, final conc. 120μM), and 10 μl of activated microsomal enzyme(0.03-0.04 mg), and the mixture was incubated at 37° C. for 30 min. […] A region having a Rf value ranging from 0.65 to 0.75 was removed by scraping with a disposable cover slips and assayed for radioactivity with 1450 Microbeta liquid scintillation counter(Wallac Co., Finland). Enzyme activities were calculated as picomoles mevalonic acid synthesized per min. per mg protein(pmoles/min/mg protein).

With `CCCCCCCCCCCCCCCCOc1cc(O)c2c(c1)OC(c1ccc(O)cc1)CC2=O` (stereo not drawn) [NG5006, Naringenin 7-O-cetyl Ether] the weight change (ICR mice; 7 day test period) was “no weight loss”, the survival (ICR mice; observed 7 days) was “All the mice were alive at day 7” and the toxicity (ICR mice; observed 7 days) was “no toxicity”. For the same compound, the “autopsy, pathological abnormality” value (ICR mice; sacrificed on the 7th day) was “did not develop any pathological abnormality”, the “HMG-CoA activity lower than that of the control group” value (HMG-CoA reductase; NG5006-fed rat group) was 27.5% and the HMG-CoA reductase activity (HMG-CoA reductase; liver microsomes of rats fed 1% cholesterol plus 0.02% naringenin or 0.036% NG5006, six weeks) was 81.6 ± 6.0 pmole/min/mg protein.
